Experimental data reported in PubChem BioAssay AID248 (DTP/NCI, 2004).
Where “and” joins values, the source holds several entries; their conditions need not be identical. Equal entries are not always repeated. Toxic doses and inconclusive results are not listed. No stated cut-off is given here; in the data, active means T/C of 150% or more; inactive means T/C below 125%. Peptide text beside a SMILES is read from it. * marks the point of attachment. Cbz = O=C(OCc1ccccc1)*; CH2Cl = ClC*

Tested on: L1210 leukemia ip in BDF1 mice, survival T/C
Test: NCI In Vivo Anticancer Drug Screen. Data for tumor model L1210 Leukemia (intraperitoneal) in B6D2F1 (BDF1) mice
Settings: endpoint: mean survival time, higher = longer survival
Outline: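 Tumor was transplanted into mice, which were then dosed with test compound or vehicle alone. Survival was recorded for each group, and the treated figure was expressed relative to the control figure.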

[1] = dose: 100.0 mg/kg/injection, schedule: Q01DX009 (ip), vehicle: saline with Tween-80
[2] = dose: 100.0 mg/kg/injection, schedule: Q04DX003 (ip), vehicle: saline with Tween-80
[3] = dose: 200.0 mg/kg/injection, schedule: Q01DX009 (ip), vehicle: saline with Tween-80
[4] = dose: 200.0 mg/kg/injection, schedule: Q04DX003 (ip), vehicle: saline with Tween-80
[5] = dose: 400.0 mg/kg/injection, schedule: Q01DX009 (ip), vehicle: saline with Tween-80
[6] = dose: 400.0 mg/kg/injection, schedule: Q04DX003 (ip), vehicle: saline with Tween-80
[7] = dose: 100.0 mg/kg/injection, schedule: Q01DX001 (ip), vehicle: Klucel (hydroxypropylcellulose) (HPC)
[8] = dose: 100.0 mg/kg/injection, schedule: Q04DX003 (ip), vehicle: Klucel (hydroxypropylcellulose) (HPC)
[9] = dose: 200.0 mg/kg/injection, schedule: Q01DX001 (ip), vehicle: Klucel (hydroxypropylcellulose) (HPC)
[10] = dose: 200.0 mg/kg/injection, schedule: Q04DX003 (ip), vehicle: Klucel (hydroxypropylcellulose) (HPC)
[11] = dose: 400.0 mg/kg/injection, schedule: Q01DX001 (ip), vehicle: Klucel (hydroxypropylcellulose) (HPC)
[12] = dose: 400.0 mg/kg/injection, schedule: Q04DX003 (ip), vehicle: Klucel (hydroxypropylcellulose) (HPC)
[13] = dose: 25.0 mg/kg/injection, schedule: Q04DX003 (ip), vehicle: Klucel (hydroxypropylcellulose) (HPC)
[14] = dose: 100.0 mg/kg/injection, schedule: Q01DX001 (ip), vehicle: saline
[15] = dose: 200.0 mg/kg/injection, schedule: Q01DX001 (ip), vehicle: saline
[16] = dose: 75.0 mg/kg/injection, schedule: Q01DX001 (ip), vehicle: saline
[17] = dose: 75.0 mg/kg/injection, schedule: Q04DX003 (ip), vehicle: saline
[18] = dose: 150.0 mg/kg/injection, schedule: Q04DX003 (ip), vehicle: saline
[19] = dose: 300.0 mg/kg/injection, schedule: Q04DX003 (ip), vehicle: saline

Measured: T/C

O=C(Nc1ccccc1)N(Cc1ccccc1)c1ccccc1
inactive: [1] 90 % of control | [2] 101 % of control | [3] 89 % of control | [4] 101 % of control | [5] 96 % of control | [6] 86 % of control

CCCCCCCCCCCCCCCCN(C(=S)NC(=O)c1ccccc1)c1ccccc1
inactive: [7] 96 % of control | [8] 97 % of control | [9] 86 % of control | [10] 89 % of control | [11] 92 % of control | [12] 95 % of control

CC1(C)C2CC1C(O)(C(=O)O)C2 (stereo not drawn)
inactive: dose: 75.0 mg/kg/injection, schedule: Q01DX001 (ip), vehicle: acetone 94 % of control | dose: 150.0 mg/kg/injection, schedule: Q01DX001 (ip), vehicle: acetone 97 % of control | dose: 300.0 mg/kg/injection, schedule: Q01DX001 (ip), vehicle: acetone 96 % of control

N#CC(C#N)=Cc1ccsc1
inactive: dose: 6.25 mg/kg/injection, schedule: Q01DX009 (ip), vehicle: Klucel (hydroxypropylcellulose) (HPC) 102 % of control | dose: 12.5 mg/kg/injection, schedule: Q01DX009 (ip), vehicle: Klucel (hydroxypropylcellulose) (HPC) 94 % of control | dose: 12.5 mg/kg/injection, schedule: Q04DX003 (ip), vehicle: Klucel (hydroxypropylcellulose) (HPC) 102 % of control | dose: 25.0 mg/kg/injection, schedule: Q01DX009 (ip), vehicle: Klucel (hydroxypropylcellulose) (HPC) 100 % of control | [13] 96 % of control

CCCCCCCCN/N=C(/C)CCCCCO
inactive: [14] 98 % of control | [15] 103 % of control | dose: 400.0 mg/kg/injection, schedule: Q01DX001 (ip), vehicle: saline 103 % of control

CC(=O)Cc1cc(C)nc(/N=C(\N)N2CCCCC2)n1
inactive: dose: 100.0 mg/kg/injection, schedule: Q04DX002 (ip), vehicle: Klucel (hydroxypropylcellulose) (HPC) 92 % of control | dose: 200.0 mg/kg/injection, schedule: Q04DX002 (ip), vehicle: Klucel (hydroxypropylcellulose) (HPC) 103 % of control | dose: 400.0 mg/kg/injection, schedule: Q04DX002 (ip), vehicle: Klucel (hydroxypropylcellulose) (HPC) 96 % of control

C[N+](C)(C)CCN=C(N)N[N+](=O)[O-]
inactive: dose: 100.0 mg/kg/injection, schedule: Q01DX009 (ip), vehicle: saline 97 % of control | dose: 100.0 mg/kg/injection, schedule: Q04DX003 (ip), vehicle: saline 97 % of control | dose: 200.0 mg/kg/injection, schedule: Q01DX009 (ip), vehicle: saline 99 % of control | dose: 200.0 mg/kg/injection, schedule: Q04DX003 (ip), vehicle: saline 98 % of control | dose: 400.0 mg/kg/injection, schedule: Q04DX003 (ip), vehicle: saline 98 % of control

NC(=O)c1nnc(-c2ccccn2)[nH]c1=O
inactive: [7] 93 % of control

ClCC/C=C\C=C\CCCl
inactive: [16] 93 % of control | [17] 107 % of control | dose: 150.0 mg/kg/injection, schedule: Q01DX001 (ip), vehicle: saline 105 % of control | [18] 111 % of control | dose: 300.0 mg/kg/injection, schedule: Q01DX001 (ip), vehicle: saline 93 % of control | [19] 107 % of control

COc1ccccc1CN1CCCN(Cc2ccccc2OC)C1c1ccc(N(CCCl)CCCl)cc1Cl
inactive: dose: 50.0 mg/kg/injection, schedule: Q01DX001 (ip), vehicle: carboxymethylcellulose (CMC) 95 % of control | dose: 100.0 mg/kg/injection, schedule: Q01DX001 (ip), vehicle: carboxymethylcellulose (CMC) 101 % of control | dose: 200.0 mg/kg/injection, schedule: Q01DX001 (ip), vehicle: carboxymethylcellulose (CMC) 98 % of control | dose: 400.0 mg/kg/injection, schedule: Q01DX001 (ip), vehicle: carboxymethylcellulose (CMC) 95 % of control

CC1=C(Cl)C(=O)C(C)=C(Cl)C1=O
inactive: dose: 10.0 mg/kg/injection, schedule: Q01DX001 (ip), vehicle: saline 90 % of control | dose: 20.0 mg/kg/injection, schedule: Q01DX001 (ip), vehicle: saline 92 % of control | dose: 40.0 mg/kg/injection, schedule: Q01DX001 (ip), vehicle: saline 108 % of control

CC(C)(C)C1CCS(=O)(=O)CC1.[Cl][Hg][Cl]
inactive: dose: 0.25 mg/kg/injection, schedule: Q01DX009 (ip), vehicle: saline 97 % of control | dose: 0.5 mg/kg/injection, schedule: Q01DX009 (ip), vehicle: saline 98 % of control | dose: 1.0 mg/kg/injection, schedule: Q01DX009 (ip), vehicle: saline 94 % of control

C[N+](C)(CC(=O)Nc1ccc(Cl)c(Cl)c1)CC(=O)c1ccc(Cl)c(Cl)c1
inactive: [2] 100 % of control | [4] 100 % of control | [6] 102 % of control

CC1CCC(C(C)C)/C(=N/NC(=O)c2ccccc2)C1 (stereo not drawn)
inactive: dose: 100.0 mg/kg/injection, schedule: Q01DX009 (ip), vehicle: Klucel (hydroxypropylcellulose) (HPC) 98 % of control | [8] 104 % of control | dose: 200.0 mg/kg/injection, schedule: Q01DX009 (ip), vehicle: Klucel (hydroxypropylcellulose) (HPC) 93 % of control | [10] 102 % of control | dose: 400.0 mg/kg/injection, schedule: Q01DX009 (ip), vehicle: Klucel (hydroxypropylcellulose) (HPC) 86 % of control | [12] 102 % of control

Cc1ccc(NCc2ccccc2)cc1
inactive: dose: 100.0 mg/kg/injection, schedule: Q04DX003 (ip), vehicle: other 112 % of control | dose: 200.0 mg/kg/injection, schedule: Q04DX003 (ip), vehicle: other 92 % of control

CN1CCN(c2nn3nnnc3c3ccccc23)CC1
inactive: dose: 20.0 mg/kg/injection, schedule: Q04DX003 (ip), vehicle: saline 98 % of control | dose: 40.0 mg/kg/injection, schedule: Q04DX003 (ip), vehicle: saline 104 % of control | dose: 80.0 mg/kg/injection, schedule: Q04DX003 (ip), vehicle: saline 95 % of control

c1ccc2ocnc2c1
inactive: [8] 94 % of control | [10] 96 % of control | [12] 113 % of control

C=CCSC1=NC(=O)C(CCCC)C(=O)N1C (stereo not drawn)
inactive: [16] 88 % of control

CC(C)CC(NC(=O)CNC(=O)OCc1ccccc1)C(=O)NC(Cc1ccccc1)C(=O)CCl (stereo not drawn) (Cbz-Gly-Leu-Phe-CH2Cl; configuration not given here)
inactive: [13] 102 % of control | dose: 50.0 mg/kg/injection, schedule: Q04DX003 (ip), vehicle: Klucel (hydroxypropylcellulose) (HPC) 106 % of control | dose: 75.0 mg/kg/injection, schedule: Q04DX003 (ip), vehicle: Klucel (hydroxypropylcellulose) (HPC) 94 % of control and 90 % of control | [7] 92 % of control | [9] 92 % of control

CNC1(C(N)=O)CCN(Cc2ccccc2)CC1
inactive: dose: 50.0 mg/kg/injection, schedule: Q01DX009 (ip), vehicle: saline with Tween-80 99 % of control | [1] 94 % of control | [2] 95 % of control | [3] 90 % of control | [4] 101 % of control

CC(C)CCCC(C)C1CCC2C3CCC4(C)CCCCC4(C)C3CCC12C (stereo not drawn)
inactive: [7] 98 % of control | [9] 94 % of control | [11] 109 % of control

Cc1cc(C2=CCCCC2)c2ccccc2c1C
inactive: [7] 95 % of control | [9] 103 % of control | [11] 95 % of control

NC(N)=Nc1cccc(OCCCOc2ccccc2)c1
inactive: dose: 150.0 mg/kg/injection, schedule: Q01DX001 (ip), vehicle: saline with Tween-80 88 % of control | dose: 300.0 mg/kg/injection, schedule: Q01DX001 (ip), vehicle: saline with Tween-80 94 % of control

CC(C)(C)OC(=O)CC#N
inactive: [17] 97 % of control | [14] 97 % of control | [18] 94 % of control | [15] 101 % of control | [19] 100 % of control

CCOC(=O)C(Cc1c(C)c(OC)c(CC(C(=O)OCC)C(=O)OCC)c(C)c1OC)C(=O)OCC
inactive: [1] 101 % of control | [2] 93 % of control | [3] 97 % of control | [4] 88 % of control | [5] 92 % of control | [6] 90 % of control

CC(=O)CCC(=O)CCC(=O)O
inactive: dose: 100.0 mg/kg/injection, schedule: Q04DX002 (ip), vehicle: saline 92 % of control | dose: 200.0 mg/kg/injection, schedule: Q04DX002 (ip), vehicle: saline 100 % of control | dose: 400.0 mg/kg/injection, schedule: Q04DX002 (ip), vehicle: saline 95 % of control
